This is an account of results in patent US20090247624A1, “FORMULATIONS OF RADIOPROTECTIVE ALPHA BETA UNSATURATED ARYL SULFONES” (Onconova Therapeutics Inc., priority 2006, published 2009).

One data set has as its system HFL-1 cells. Kind of data set: Radioprotective effects on cultured normal cells (colony count). It counts as cell-based, human. As to conditions: 2.5 to 20 micromolar for 24 hrs before 10 Gy or 15 Gy; colonies on test plates / control plates. As for the experimental part: HFL-1 cells, which are normal diploid lung fibroblasts, were plated into 24 well dishes at a cell density of 3000 cells per 10 mm^2 in DMEM completed with 10% fetal bovine serum and antibiotics. The test compounds listed in Table 11 were added to the cells 24 hours later in select concentrations from 2.5 to 20 micromolar, inclusive, using DMSO as a solvent. Control cells were treated with DMSO alone. The cells were exposed to the test compound or DMSO for 24 hrs. The cells were then irradiated with either 10 Gy (gray) or 15 Gy of ionizing radiation (IR) using a J. L. Shepherd Mark I, Model 30-1 Irradiator equipped with ^137cesium as a source.
After irradiation, the medium on the test and control cells was removed and replaced with fresh growth medium without the test compounds or DMSO. The irradiated cells were incubated for 96 hours and duplicate wells were trypsinized and replated onto 100 mm^2 tissue culture dishes. The replated cells were grown under normal conditions with one change of fresh medium for 3 weeks. The number of colonies from each 100 mm^2 culture dish, which represents the number of surviving cells, was determined by staining the dishes as described below.
To visualize and count the colonies derived from the clonal outgrowth of individual radioprotected cells, the medium was removed and the plates were washed one time with room temperature phosphate buffered saline. The cells were stained with a 1:10 diluted Modified Giemsa staining solution (Sigma) for 20 minutes. The stain was removed, and the plates were washed with tap water. The plates were air dried, the number of colonies from each plate were counted and the average from duplicate plates was determined.
A “+” indicates radioprotective activity of between 2- and 4.5-fold at the concentrations tested. Fold protection was determined by dividing the average number of colonies from the test plates by the average number of colonies on the control plates.

In another data set the test system is rodent species. As to conditions: after IP and IV administration to different rodent species; cited from earlier work.
The conditions of data set [1]: room temperature; cited from earlier work.
For the next data set, the system named is human. As to conditions: approximately 500 mg/kg iv continuously as 5 percent aqueous solution, one individual, four days; cited from earlier work.
Another data set relates to C57 black mice. The data set can be described thus: Protection of mice from radiation toxicity by pre-treatment. In kind it is in vivo. As for the experimental part:
C57 black mice age 10-12 weeks (Taconic) were divided into two treatment groups of 10 mice each. One group, designated the “200×2” group, received intraperitoneal injections of 200 micrograms (E)-4-carboxystyryl-4-chlorobenzylsulfone dissolved in DMSO (a 10 mg/Kg dose, based on 20 g mice) 18 and 6 hours before irradiation with 8 Gy gamma radiation. The other group, designated “500×2,” received intraperitoneal injections of 500 micrograms (E)-4-carboxystyryl-4-chlorobenzylsulfone dissolved in DMSO (a 25 mg/Kg dose, based on 20 g mice) 18 and 6 hours before irradiation with 8 Gy gamma radiation. A control group of 16 animals received 8 Gy gamma radiation alone.

Setting [2] is: “200×2” group: 10 mg/Kg i.p. 18 and 6 hours before 8 Gy gamma radiation.
Setting [3] is: “500×2” group: 25 mg/Kg i.p. 18 and 6 hours before 8 Gy gamma radiation.

With “(E)-2,4,6-Trimethoxystyryl-4-methoxybenzylsulfone [Compound 2]”, the “Activity (radioprotection, fold protection)” value with HFL-1 cells was “+ (A “+” indicates radioprotective activity of between 2- and 4.5-fold at the concentrations tested)”.

As for “(E)-4-Fluorostyryl-4-chlorophenylsulfone [Compound 10]”, the “Activity (radioprotection, fold protection)” value in the data set with HFL-1 cells was “+ (A “+” indicates radioprotective activity of between 2- and 4.5-fold at the concentrations tested)”.

Regarding Hydroxypropyl-B-Cyclodextrin [HPCD], in the data set on rodent species, the toxicity result is given as “non-toxic”. Moreover, the solubility in water result in data set [1] is “greater than 500 mg/ml”. Also, the adverse clinical effects entry in the data set on human is reported as “no adverse clinical effects were reported”.

Turning to “(Z)-Styryl-(E)-2-methoxy-4-ethoxystyrylsulfone [Compound 11]”, the “Activity (radioprotection, fold protection)” value in the data set on HFL-1 cells is “+ (A “+” indicates radioprotective activity of between 2- and 4.5-fold at the concentrations tested)”.

For `O=S(=O)(/C=C\c1ccc(F)cc1)Cc1ccc(Cl)cc1` [Compound 7, (Z)-4-Fluorostyryl-4-chlorobenzylsulfone], in the data set with HFL-1 cells, the “Activity (radioprotection, fold protection)” value is “+ (A “+” indicates radioprotective activity of between 2- and 4.5-fold at the concentrations tested)”.

Regarding “(E)-4-Fluorostyryl-4-trifluoromethylbenzylsulfone [Compound 5]”, the “Activity (radioprotection, fold protection)” value in the data set with HFL-1 cells is “+ (A “+” indicates radioprotective activity of between 2- and 4.5-fold at the concentrations tested)”.

In the case of “(E)-4-Fluorostyryl-4-cyanobenzylsulfone [Compound 6]”, the “Activity (radioprotection, fold protection)” value with HFL-1 cells is “+ (A “+” indicates radioprotective activity of between 2- and 4.5-fold at the concentrations tested)”.

`O=C(O)c1ccc(/C=C/S(=O)(=O)Cc2ccc(Cl)cc2)cc1` [Compound 13, (E)-4-Carboxystyryl-4-chlorobenzylsulfone]: the “Activity (radioprotection, fold protection)” value in the data set with HFL-1 cells is “+ (A “+” indicates radioprotective activity of between 2- and 4.5-fold at the concentrations tested)”. The “maximum mortality rate by day 40” value was “approximately 60%” in the data set with C57 black mice (setting [2]) and “about 50%” with C57 black mice (setting [3]). The “mice dead at day 20” value is “about 50%” with C57 black mice (setting [2]) and “about 30%” in the data set with C57 black mice (setting [3]).

As to `O=S(=O)(/C=C/c1ccoc1)Cc1ccc(Cl)cc1Cl` [Compound 8, (E)-3-Furanethenyl-2,4-dichlorobenzylsulfone], in the data set with HFL-1 cells, the “Activity (radioprotection, fold protection)” value was “+ (A “+” indicates radioprotective activity of between 2- and 4.5-fold at the concentrations tested)”.

In the case of `O=S(=O)(/C=C/c1ccc(F)cc1)Cc1ccc(Cl)cc1` [Compound 1, (E)-4-Fluorostyryl-4-chlorobenzylsulfone], the “Activity (radioprotection, fold protection)” value in the data set on HFL-1 cells is “+ (A “+” indicates radioprotective activity of between 2- and 4.5-fold at the concentrations tested)”.
